Data: patent publication US8906955B2, “Use of adrenergic beta-3-receptor agonists in anti-aging” (priority 2012, dated 2014)

Columns and labels:
p53 [1] = assay: Western blot of p53 in MCF-7 cells treated with SR59230A; assay type: cell-based; details: 24 h, with increasing SR59230A concentration, western blot vs GAPDH
Procedure: (§1) MCF-7 cells were treated with SR59230A at different concentrations. After 24 h, the cells were lysed to extract total protein. The protein concentration was determined by BCA method. 10 μg of the protein was used to perform 10% SDS PAGE, and then transferred to a PVDF membrane. The membrane was blocked for 1 h with TBST (10 mmol/L Tris HCl, pH 7.5, 150 mmol/L NaCl, 0.1% Tween 20) containing 4% fat-free milk, and incubated overnight with p53 antibody (1:1000) and SIRT1 antibody (1:1000) at 4° C. The membrane was further incubated with secondary antibodies for 1 h after washing, followed by ECL color development. The same procedure is repeated 3 times. The gray values of protein bands were obtained through Fluorchem 8900 software and the ratio of target band to reference band (GAPDH) was calculated. Results are shown in FIGS. 1 and 2, wherein the expression level of p53 is increased as the increase of SR59230A concentration, while SIRT1 is decreased.

MCF7 cells [2] = assay: MDC staining by flowcytometer; assay type: cell-based; details: 10^−7 M
Procedure: (§2) Activation of the β3 receptor could increase mitochondrial content of MCF7 cells. BRL37344 and SR59230A were used to treat MCF7 cells and naked tumor-bearing rats each at 10^−7 M. The amount of mitochondrion was determined by MitoTracker probes. Mitochondrial membrane potential was determinded by JC1. The ROS content of the cells was determined by fluorescence probe H2DCFDA. ATP level was determined by ATP kit. MDC staining was determined by flowcytometer. GFP-LC3 eukaryotic expression vectors were used for transfection. […] BRL37344 protected mitochondrial membrane potential (FIG. 10), reduced intracellular ROS content (FIG. 11), and increased intracellular ATP level (FIG. 12).

MCF7 cells [3] = assay: MitoTracker/LC3B immunofluorescence double staining (mitochondrion content, mitophagy); assay type: cell-based; details: 10^−7 M
Procedure: as §2

MCF7 cells [4] = assay: GFP-LC3 eukaryotic expression vector transfection; assay type: cell-based; details: 10^−7 M, GFP-LC3 transfected cells
Procedure: as §2

SIRT1 [5] = assay: Western blot of SIRT1 in MCF-7 cells treated with SR59230A; assay type: cell-based; details: 24 h, with increasing SR59230A concentration, western blot vs GAPDH
Procedure: as §1

MCF7 cells [6] = assay: JC-1 flow cytometry of mitochondrial membrane potential; assay type: cell-based; details: 10^−7 M
Procedure: as §2

Rictor/α-Tubulin = Rictor/α-Tubulin immunofluorescence double staining in cardiac fibroblast; assay type: cell-based, rat; details: cardiac fibroblast of rats, 10^−7 M, confocal microscope
Excerpt: (§3) Beta-3 receptor promoted binding of mTORC2 to α-Tubulin in spindle apparatus. BRL37344 was used to treat cardiac fibroblast of rats at 10^−7 M. The cells were undergone mTOR/α-Tubulin immunohistochemical double staining and Rictor/α-Tubulin immunofluorescence double staining, and observed under confocal microscope.

[7] = tested on: adipose-derived stem cells of rats; assay: β-Galactosidase staining of adipose-derived stem cells; assay type: cell-based, rat; details: 10^−7 M, 24 h, compared with SR59230A
Procedure: Blockage of the β-3 receptor could increase level of β-galactosidase in adipose-derived stem cells and promote stem cell aging. BRL37344 and SR59230A were used to treat adipose-derived stem cells of rats each at 10^−7 M. After 24 h, cells were fixed using paraformaldehyde, and stained and photographed according to the specification of β-Galactosidase Staining Kit. BRL37344 decreases the level of β-galactosidase in adipose-derived stem cells compared with SR59230A, indicating agonisting of adrenergic β3 receptors of adipose-derived stem cells achieves anti-aging effect.

SIRT3 = assay: Quantitative PCR of SIRT3 in organs of aging rats; assay type: in vivo; details: 12-month male SD rats, 100 nmol per rat intraperitoneally, qd, 2 weeks, vs control group
Excerpt: (§4) Activation of the β3 receptor could increase the expression of SIRT1, SIRT3 and SIRT4 in heart, liver, brain, kidney and aorta of aging rats. Twenty 12-month male SD rats were randomly divided into 2 groups. The rats were intraperitoneally injected with BRL37344 at 100 nmol for each rat, qd, 2 weeks. The rats in control group were administrated with solvents of same volume. The rats were sacrificed to obtain heart, liver, brain, kidney and aorta, followed by total RNA extraction. The RNA was then reversely transcribed, followed by quantitative PCR to detect gene expression of SIRT1, SIRT3 and SIRT4. Compared to the control group, BRL37344 increases the expression of SIRT1, SIRT3 and SIRT4 in heart, liver, brain, kidney and aorta.

SIRT1 [8] = assay: Western blot of SIRT1 in heart tissue of myocardial infarction rats; assay type: in vivo; details: heart failure rat, 1 mg/kg/day intraperitoneally, 4 weeks
Procedure: (§5) In rat myocardial infarction models, activation of the β-3 receptor could increase level of SIRT1 in cardiomyocyte, inhibit expression of p53, improve the cardiac function and achieve anti-apoptosis effect. The myocardial infarction model was created by ligation of anterior descending branch of rat left coronary artery. BRL37344 was intraperitoneally injected at 1 mg/kg/day, and heart B-ultrasonography was performed after 4 weeks. Heart tissue was determined for apoptosis (tunel method) and expression levels of SIRT1 and p53 (western blot). The ratio of left ventricular weight to body weight (LVW/BW) is determined. It can be seen from the results shown in FIGS. 3 to 5, that BRL37344 decreases p53 expression, cardiac cell apoptosis, and value of LVW/BW of heart failure rat, increases SIRT1 expression, alleviate cardiac hypertrophy and improve cardiac function.

naked tumor-bearing rats = assay: ATP content by ATP kit in tumor tissue of naked tumor-bearing rats; assay type: in vivo, rat; details: 10^−7 M
Procedure: as §2

MCF7 cells [9] = assay: H2DCFDA flow cytometry of reactive oxygen species; assay type: cell-based; details: 10^−7 M, fluorescence probe H2DCFDA
Procedure: as §2

SIRT1 [10] = assay: Quantitative PCR of SIRT1 in organs of aging rats; assay type: in vivo; details: 12-month male SD rats, 100 nmol per rat intraperitoneally, qd, 2 weeks, vs control group
Excerpt: as §4

SIRT4 = assay: Quantitative PCR of SIRT4 in organs of aging rats; assay type: in vivo; details: 12-month male SD rats, 100 nmol per rat intraperitoneally, qd, 2 weeks, vs control group
Excerpt: as §4

p53 [11] = assay: Western blot of p53 in heart tissue of myocardial infarction rats; assay type: in vivo; details: heart failure rat, 1 mg/kg/day intraperitoneally, 4 weeks
Procedure: as §5

mTOR/α-Tubulin = mTOR/α-Tubulin double staining in cardiac fibroblast; assay type: cell-based, rat; details: cardiac fibroblast of rats, 10^−7 M, confocal microscope
Excerpt: as §3

cardiomyocyte = assay: Lipofuscin in cardiomyocyte under confocal microscope; assay type: cell-based, rat; details: 10^−7 M, 10 days
Excerpt: Beta-3 receptor reduced amount of lipofuscin in cardiomyocyte. BRL37344 and SR59230A were used to treat cardiomyocyte each at 10^−7 M. After 10 days, cells were observed under confocal microscope for lipofuscin.

[12] = tested on: rat myocardial infarction models; assay: Rat myocardial infarction (heart failure) model: B-ultrasonography, tunel apoptosis, LVW/BW; assay type: in vivo; details: 1 mg/kg/day intraperitoneally, 4 weeks
Procedure: as §5

mTOR/Rictor complex = assay: Western blot of mTOR/Rictor complex; assay type: cell-based; details: rat cardiomyocyte, 10^−7 M, 24 h, compared to control shRNA
Procedure: Activation of the β3 receptor could increase mTOR/Rictor complex in […]. shRNA of β3 adrenergic receptor, control shRNA, BRL37344 and SR59230A was used to treat rat cardiomyocyte each at 10^−7 M. After 24 h, total protein was extracted and subjected to western blot to determine the expression amount of mTOR and Rictor proteins.

## CCc1ccccc1OC[C@@H](O)CN[C@H]1CCCc2ccccc21 [SR59230A]
p53 [1]
  expression level of p53: increased
MCF7 cells [2]
  MDC staining: increased
MCF7 cells [3]; MitoTracker probes
  content of mitochondrion: decreases
MCF7 cells [3]; MitoTracker/LC3B double staining
  mitophagy: enhance
MCF7 cells [4]
  GFP-LC3 fluorescent spots: promoted to form many bright and green fluorescent spots
SIRT1 [5]
  expression level of SIRT1: decreased
MCF7 cells [6]
  mitochondrial membrane potential: damaged

## C[C@H](Cc1ccc(OCC(=O)O)cc1)NC[C@H](O)c1cccc(Cl)c1 [BRL37344]
Rictor/α-Tubulin
  binding of Rictor to α-Tubulin: promoted
[7]
  level of β-galactosidase in adipose-derived stem cells: decreases
SIRT3
  expression of SIRT3 in heart, liver, brain, kidney and aorta: increases
SIRT1 [8]
  SIRT1 expression in rat myocardia: increases
Naked tumor-bearing rats
  intracellular ATP level: increased
MCF7 cells [9]
  intracellular ROS content: reduced
SIRT1 [10]
  expression of SIRT1 in heart, liver, brain, kidney and aorta: increases
SIRT4
  expression of SIRT4 in heart, liver, brain, kidney and aorta: increases
p53 [11]
  p53 expression in rat myocardia: decreases
mTOR/α-Tubulin
  binding of mTOR to α-Tubulin in spindle apparatus: promoted
MCF7 cells [6]
  mitochondrial membrane potential: protected
cardiomyocyte
  lipofuscin in cardiomyocyte: significantly reduced
[12]
  cardiac hypertrophy: alleviate
  ratio of left ventricular weight to body weight (LVW/BW): decreases
[12]; heart B-ultrasonography, 1 mg/kg/day
  cardiac function: improve
[12]; tunel method, 1 mg/kg/day
  cardiac cell apoptosis: decreases
mTOR/Rictor complex
  mTOR/Rictor complex: increases
